Measurements as given in patent US10253002B2, “Compounds and methods of treating infections” (Neoculi Pty Ltd., priority 2013, dated 2019).

How the values were obtained:
Streptococcus pneumoniae = details: control strain Streptococcus pneumoniae ATCC 49619; cited from earlier work
[1] = test system: DNA synthesis in S. aureus ATCC 29213; experiment: Macromolecular synthesis assay: DNA synthesis ([3H] thymidine); format: cell-based, Staphylococcus aureus
Procedure: (§1) Cells were grown at 35° C. overnight on Trypticase Soy agar. A colony from the plate was used to inoculate 10 ml of Mueller Hinton broth II (MHBII), and the culture was grown to early exponential growth phase (OD600==0.2 to 0.3) while incubating in a shaker at 35° C. and 200 rpm.
When cells reached early exponential phase, 100 μL of culture was added to triplicate wells containing various concentrations of test compound or control antibiotics (5 μL) at 20× the final concentration in 100% DMSO. A 5% DMSO treated culture served as the “no drug” control for all experiments. Cells were added in MHBII at 105% to account for the volume of drug added to each reaction or in M9 minimal medium for protein synthesis reactions. Following 15 min incubation at room temperature, either [^3H] thymidine (DNA synthesis), [^3H] uridine (RNA synthesis) or [^3H] leucine (protein synthesis) was added at 0.5-1.0 μCi per reaction, depending on the experiment. Reactions were allowed to proceed at room temperature for 15-30 min and then stopped by adding 12 μL of cold 5% trichloroacetic acid (TCA) or 5% TCA/2% casamino acids (protein synthesis only). Reactions were incubated on ice for 30 min and the TCA precipitated material was collected on a 25 mm GF/A filter. After washing three times with 5 ml of cold 5% TCA, the filters were rinsed two times with 5 mL 100% ethanol, allowed to dry, and then counted using a Beckman LS3801 liquid scintillation counter.

[2] = test system: lipid synthesis in S. aureus ATCC 29213; experiment: Macromolecular synthesis assay: lipid synthesis ([3H] glycerol); format: cell-based, Staphylococcus aureus; details: at the MIC
Procedure: as §1
Bacterial cells were grown to early exponential growth phase in MHBII broth and added to 1.5 mL eppendorf tubes (in triplicate) containing various concentrations of test compound or control antibiotics as described above. Following a 5 min incubation at room temperature, [^3H] glycerol was added at 0.5 μCi per reaction.
Reactions were allowed to proceed at room temperature for 15 min and then stopped through the addition of 375 μL chloroform/methanol (1:2) followed by vortexing for 20 seconds after each addition. Chloroform (125 μL) was then added to each reaction, vortexed, followed by the addition of 125 μL dH2O and vortexing. Reactions were centrifuged at 13,000 rpm for 10 min, and then 150 μL of the organic phase was transferred to a scintillation vial and allowed to dry in a fume hood for at least 1 hr. Samples were then counted via liquid scintillation counting.

MRSA = experiment: Kill kinetics assay, Example 7; format: cell-based, Staphylococcus aureus
Procedure: (§2) MRSA/VRE were grown overnight on Columbia SBA at 37° C. A few colonies of bacteria were then suspended in CAMHB and adjusted to an optical density of 0.08 to 0.10. The bacterial suspension was diluted 1:10. […] The tubes were incubated at 37° C. In order to determine the number of viable bacteria present at various time points, a 100 μL aliquot was removed from each tube and diluted in normal saline. Then, 100 μL of each dilution was spread onto colony count agar, in duplicate, and incubated for 48 h at 37° C. After 24 h the numbers of colonies present on each plate were counted and therefore the number of viable bacteria present in the original suspension enumerated. Plates were re-checked after 48 hours.

[3] = test system: RNA synthesis in S. aureus ATCC 29213; experiment: Macromolecular synthesis assay: RNA synthesis ([3H] uridine); format: cell-based, Staphylococcus aureus; details: 0.25 to 8 fold the MIC; rifampicin positive control
Procedure: as §1
When cells reached early exponential phase, 100 μL of culture was added to triplicate wells containing various concentrations of test compound or control antibiotics (5 μL) at 20× the final concentration in 100% DMSO. A 5% DMSO treated culture served as the “no drug” control for all experiments. Cells were added in MHBII at 105% to account for the volume of drug added to each reaction or in M9 minimal medium for protein synthesis reactions. Following 15 min incubation at room temperature, either [^3H] thymidine (DNA synthesis), [^3H] uridine (RNA synthesis) or [^3H] leucine (protein synthesis) was added at 0.5-1.0 μCi per reaction, depending on the experiment. Reactions were allowed to proceed at room temperature for 15-30 min and then stopped by adding 12 μL of cold 5% trichloroacetic acid (TCA) or 5% TCA/2% casamino acids (protein synthesis only). […] After washing three times with 5 ml of cold 5% TCA, the filters were rinsed two times with 5 mL 100% ethanol, allowed to dry, and then counted using a Beckman LS3801 liquid scintillation counter.

[4] = Release from Formulation B, Franz diffusion cells; format: physicochemical; details: absolute ethanol receptor, 32±1° C., up to 24 hours
Procedure: Franz diffusion cells were utilized to quantify the release rate of NCL 812 and NCL099 from its topical formulations. Five milliliters of absolute ethanol, which was chosen as the desired release medium, was loaded into the receptor chamber. Temperature of the receptor fluid was kept constant, at 32±1° C. using a water jacket. Acetyl cellulose membranes, with pore size of 0.45 μm (Pall Corporation) was selected and placed between donor and receptor chamber. Followed by that, a number of test samples (Formulation B) was loaded into the donor chamber. One milliliter of receptor fluid was collected at regular time intervals of 0.25, 0.50, 0.75, 1, 2, 3, 4, 5, 6, 7, 8 and 24 hours through the sampling port. One milliliter of fresh absolute ethanol was immediately returned to the receptor chamber. UV-HPLC was utilized to analyse the content of the receptor fluids attained.

S. pneumoniae strain D39 = experiment: Micro-broth dilution time kill studies; format: cell-based, Streptococcus pneumoniae; details: D39 treated with 54 μg/mL NCL812
VRE = experiment: Kill kinetics assay, Example 7; format: cell-based, Enterococcus spp.
Procedure: as §2

Structure (SMILES) | Acceptable MIC range for Ampicillin (Streptococcus pneumoniae) [µg/mL] | inhibition of DNA synthesis ([1]; 0.5 fold the MIC) [%] | inhibition of DNA synthesis ([1]; […] the MIC) | inhibition of DNA synthesis ([1]; at the MIC) | inhibition of lipid synthesis [2] | numbers of bacteria versus control (MRSA; after 24 h, all NCL812 concentrations) | reduction in comparison to the growth control (MRSA; at 4 h) | difference between the control and bacteria exposed to NCL812 (MRSA; at 8 h) [log10 CFU/mL] | inhibition of RNA synthesis [3] | release profile from Formulation B [4] | time at which treated D39 entered a log phase of growth (S. pneumoniae strain D39) [h] | reduction in the viable count compared to the control (VRE; at 4 h) [log10] | reduction in the viable count compared to the control (VRE; at 8 h) [log10] | growth of bacteria versus control (VRE; at 24 h)
CC1(C)S[C@@H]2[C@H](NC(=O)[C@H](N)c3ccccc3)C(=O)N2[C@H]1C(=O)O [Ampicillin] | 0.06 to 0.25 | – | – | – | – | – | – | – | – | – | – | – | – | –
N=C(N/N=C/c1ccc(Cl)cc1)N/N=C/c1ccc(Cl)cc1 [NCL812, 1,3-bis[(E)-(4-chlorophenyl)methyleneamino]guanidine] | – | 40 | no inhibition | approximately 95% | approximately 90% | not significantly different to the control | at least 2.5 log10 CFU/mL | ≥ 3.5 | very similar to the DNA synthesis study | acceptable release profile | 6 | ~2 | ~2.5 | no longer as significantly reduced in comparison to the control
